Measurements as given in PubChem BioAssay (NCI).
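Cells were grown in 96-well plates and exposed to each compound for 48 hours at five concentrations; endpoints were interpolated linearly between bracketing concentrations, or set to the highest concentration if not reached. TGI: concentration producing complete growth inhibition.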

Experiments:
Assay in all cases: NCI anticancer screen, dose series, 48 h
[1] = test system: SF-539 CNS
[2] = test system: BT-549 breast
[3] = test system: SK-OV-3 ovarian
[4] = test system: A549 NSCLC
[5] = test system: MDA-N
[6] = test system: DU-145 prostate
[7] = test system: U251 CNS
[8] = test system: UO-31 renal
[9] = test system: MDA-MB-231 breast
[10] = test system: SNB-19 CNS
[11] = test system: NCI/ADR-RES ovarian
[12] = test system: A498 renal
[13] = test system: 786-0 renal
[14] = test system: SK-MEL-2 melanoma
[15] = test system: NCI-H522 lung
[16] = test system: K-562 leukemia
[17] = test system: RPMI-8226 leukemia
[18] = test system: SW-620 colon
[19] = test system: HS 578T breast
[20] = test system: SK-MEL-28 melanoma
[21] = test system: PC-3 prostate
[22] = test system: RXF 393 renal
[23] = test system: HCT-15 colon
[24] = test system: HT29 colon
[25] = test system: OVCAR-3 ovarian
[26] = test system: SF-268 CNS
[27] = test system: MCF7 breast
[28] = test system: HOP-62 NSCLC
[29] = test system: ACHN renal
[30] = test system: TK-10 renal
[31] = test system: HOP-92 NSCLC
[32] = test system: M14 melanoma
[33] = test system: SR leukemia
[34] = test system: SK-MEL-5 melanoma
[35] = test system: MOLT-4 leukemia
[36] = test system: NCI-H460 lung
[37] = test system: HCC-2998 colon
[38] = test system: T-47D breast
[39] = test system: HL-60(TB) leukemia
[40] = test system: EKVX NSCLC
[41] = test system: UACC-257 melanoma
[42] = test system: NCI-H23 lung
[43] = test system: OVCAR-8 ovarian
[44] = test system: COLO 205 colon
[45] = test system: MALME-3M melanoma
[46] = test system: SF-295 CNS
[47] = test system: LOX IMVI melanoma
[48] = test system: SN12C renal
[49] = test system: UACC-62 melanoma
[50] = test system: MDA-MB-435
[51] = test system: CAKI-1 renal
[52] = test system: CCRF-CEM leukemia
[53] = test system: HCT-116 colon
[54] = test system: OVCAR-5 ovarian
[55] = test system: KM12 colon
[56] = test system: IGROV1 ovarian
[57] = test system: SNB-75 CNS
[58] = test system: OVCAR-4 ovarian
[59] = test system: NCI-H226 lung

Work on O=C(/C=C/c1ccc2c(c1)OCO2)Cc1nc2ncccc2[nH]c1=O yielded a TGI [1] of over 100 µM, a TGI [2] of over 100 µM and a TGI [3] of over 100 µM. For the same compound, the TGI [4] was over 100 µM, the TGI [5] was over 100 µM and the TGI [6] was over 100 µM. It also gave a TGI [7] of over 100 µM, a TGI [8] of over 100 µM and a TGI [9] of over 100 µM. For the same compound, the TGI [10] was over 100 µM, the TGI [11] was over 100 µM and the TGI [12] was over 100 µM. It also gave a TGI [13] of over 100 µM, a TGI [14] of over 100 µM and a TGI [15] of over 100 µM. It also gave a TGI [16] of over 100 µM, a TGI [17] of over 100 µM and a TGI [18] of over 100 µM. It also gave a TGI [19] of over 100 µM, a TGI [20] of over 100 µM and a TGI [21] of over 100 µM. It also gave a TGI [22] of over 100 µM, a TGI [23] of over 100 µM and a TGI [24] of over 100 µM. It also gave a TGI [25] of over 100 µM, a TGI [26] of over 100 µM and a TGI [27] of over 100 µM. It also gave a TGI [28] of over 100 µM, a TGI [29] of over 100 µM and a TGI [30] of over 100 µM. It also gave a TGI [31] of over 100 µM, a TGI [32] of over 100 µM and a TGI [33] of over 100 µM. For the same compound, the TGI [34] was over 100 µM, the TGI [35] was over 100 µM and the TGI [36] was over 100 µM. The TGI [37] was over 100 µM, the TGI [38] was over 100 µM and the TGI [39] was over 100 µM. It also gave a TGI [40] of over 100 µM, a TGI [41] of over 100 µM and a TGI [42] of over 100 µM. The TGI [43] was over 100 µM, the TGI [44] was over 100 µM and the TGI [45] was over 100 µM. It also gave a TGI [46] of over 100 µM, a TGI [47] of over 100 µM and a TGI [48] of over 100 µM. For the same compound, the TGI [49] was over 100 µM, the TGI [50] was over 100 µM and the TGI [51] was over 100 µM. It also gave a TGI [52] of over 100 µM, a TGI [53] of over 100 µM and a TGI [54] of over 100 µM. For the same compound, the TGI [55] was over 100 µM and the TGI [56] was over 100 µM.

Work on Cn1c2ccc3cc2c(=S)c2cc(ccc21)OCCOCCOCCOCCOCCOCCO3 yielded a TGI [1] of over 10 µM, a TGI [2] of over 10 µM and a TGI [3] of over 10 µM. It also gave a TGI [4] of over 10 µM, a TGI [5] of over 10 µM and a TGI [6] of over 10 µM. The TGI [7] was over 10 µM, the TGI [8] was over 10 µM and the TGI [10] was over 10 µM. For the same compound, the TGI [11] was over 10 µM, the TGI [12] was over 10 µM and the TGI [13] was over 10 µM. For the same compound, the TGI [14] was over 10 µM, the TGI [15] was over 10 µM and the TGI [16] was over 10 µM. The TGI [17] was over 10 µM, the TGI [57] was over 10 µM and the TGI [18] was over 10 µM. It also gave a TGI [19] of over 10 µM, a TGI [20] of over 10 µM and a TGI [21] of over 10 µM. For the same compound, the TGI [22] was over 10 µM, the TGI [23] was over 10 µM and the TGI [58] was over 10 µM. The TGI [59] was over 10 µM, the TGI [24] was over 10 µM and the TGI [25] was over 10 µM. For the same compound, the TGI [26] was over 10 µM, the TGI [27] was over 10 µM and the TGI [28] was over 10 µM. For the same compound, the TGI [29] was over 10 µM, the TGI [30] was over 10 µM and the TGI [31] was over 10 µM. For the same compound, the TGI [32] was over 10 µM, the TGI [33] was over 10 µM and the TGI [34] was over 10 µM. It also gave a TGI [35] of over 10 µM, a TGI [36] of over 10 µM and a TGI [37] of over 10 µM. The TGI [38] was over 10 µM, the TGI [39] was over 10 µM and the TGI [40] was over 10 µM. The TGI [41] was over 10 µM, the TGI [42] was over 10 µM and the TGI [43] was over 10 µM. It also gave a TGI [44] of over 10 µM, a TGI [45] of over 10 µM and a TGI [46] of over 10 µM. The TGI [47] was over 10 µM, the TGI [48] was over 10 µM and the TGI [51] was over 10 µM. It also gave a TGI [52] of over 10 µM, a TGI [53] of over 10 µM and a TGI [54] of over 10 µM. For the same compound, the TGI [55] was over 10 µM and the TGI [56] was over 10 µM.

Work on O=C1CCC2(c3ccc(Cl)cc3)Nc3ccncc3N12 (stereo unspecified) yielded a TGI [1] of over 10 µM, a TGI [2] of over 10 µM and a TGI [3] of over 10 µM. For the same compound, the TGI [4] was over 10 µM, the TGI [5] was over 10 µM and the TGI [6] was over 10 µM. It also gave a TGI [7] of over 10 µM, a TGI [8] of over 10 µM and a TGI [9] of over 10 µM. It also gave a TGI [10] of over 10 µM, a TGI [11] of over 10 µM and a TGI [13] of over 10 µM. For the same compound, the TGI [14] was over 10 µM, the TGI [15] was over 10 µM and the TGI [16] was over 10 µM. It also gave a TGI [57] of over 10 µM, a TGI [18] of over 10 µM and a TGI [19] of over 10 µM. The TGI [21] was over 10 µM, the TGI [23] was over 10 µM and the TGI [58] was over 10 µM. It also gave a TGI [59] of over 10 µM, a TGI [24] of over 10 µM and a TGI [25] of over 10 µM. For the same compound, the TGI [26] was over 10 µM, the TGI [29] was over 10 µM and the TGI [30] was over 10 µM. It also gave a TGI [31] of over 10 µM, a TGI [32] of over 10 µM and a TGI [33] of over 10 µM. The TGI [35] was over 10 µM, the TGI [36] was over 10 µM and the TGI [39] was over 10 µM. It also gave a TGI [40] of over 10 µM, a TGI [41] of over 10 µM and a TGI [42] of over 10 µM. The TGI [43] was over 10 µM, the TGI [45] was over 10 µM and the TGI [46] was over 10 µM. For the same compound, the TGI [47] was over 10 µM, the TGI [48] was over 10 µM and the TGI [49] was over 10 µM. The TGI [50] was over 10 µM, the TGI [52] was over 10 µM and the TGI [53] was over 10 µM. For the same compound, the TGI [54] was over 10 µM, the TGI [55] was over 10 µM and the TGI [56] was over 10 µM.

Work on CCN(CC)C(=S)N/N=C/c1cc([N+](=O)[O-])ccc1O yielded a TGI [1] of 28.3 µM, a TGI [2] of 33.2 µM and a TGI [3] of 16.3 µM. For the same compound, the TGI [4] was 54 µM, the TGI [5] was over 100 µM and the TGI [6] was over 100 µM. It also gave a TGI [7] of over 100 µM, a TGI [8] of over 100 µM and a TGI [9] of 30.4 µM. The TGI [10] was 73 µM, the TGI [11] was 13.9 µM and the TGI [12] was 7.47 µM. For the same compound, the TGI [13] was 68.9 µM, the TGI [14] was 65.6 µM and the TGI [15] was 17.6 µM. The TGI [16] was 18.1 µM, the TGI [57] was 72.7 µM and the TGI [18] was over 100 µM. The TGI [19] was 95.7 µM, the TGI [20] was over 100 µM and the TGI [21] was 78 µM. For the same compound, the TGI [22] was 51.3 µM, the TGI [23] was 31.6 µM and the TGI [58] was 19.1 µM. It also gave a TGI [59] of 12.6 µM, a TGI [24] of over 100 µM and a TGI [25] of 13.3 µM. The TGI [26] was 57.5 µM, the TGI [27] was 7.05 µM and the TGI [28] was over 100 µM. For the same compound, the TGI [29] was 25.1 µM, the TGI [30] was 37.1 µM and the TGI [32] was 29.1 µM. For the same compound, the TGI [33] was 25.6 µM, the TGI [34] was 8.94 µM and the TGI [35] was 25.1 µM. For the same compound, the TGI [36] was 24.8 µM, the TGI [37] was 40.3 µM and the TGI [38] was 39.4 µM. The TGI [39] was 6.08 µM, the TGI [40] was 78.9 µM and the TGI [41] was 32.2 µM. For the same compound, the TGI [42] was 28.9 µM, the TGI [43] was 45.3 µM and the TGI [44] was 18.1 µM. For the same compound, the TGI [45] was 23.3 µM, the TGI [46] was over 100 µM and the TGI [47] was 18.5 µM. The TGI [48] was 25.6 µM, the TGI [49] was 15.4 µM and the TGI [50] was 76.9 µM. For the same compound, the TGI [52] was 8.06 µM, the TGI [53] was 12 µM and the TGI [54] was over 100 µM. For the same compound, the TGI [55] was over 100 µM and the TGI [56] was 16.7 µM.
